Test results taken from PMC8079033, “Design, synthesis, anticancer evaluation, and molecular modelling studies of novel tolmetin derivatives as potential VEGFR-2 inhibitors and apoptosis inducers” (Journal of Enzyme Inhibition and Medicinal Chemistry, 2021).

Columns and labels:
HCT-116 = assay: NCI 60-cell line one-dose antiproliferative screen (SRB); type: cell-based; conditions: Homo sapiens, read-out: growth inhibition % (GI%)
Experimental: (§1) Anticancer activity screening of the newly synthesised compounds was measured in vitro utilising 60 different human tumour cell lines provided by US National Cancer Institute according to previously reported standard procedure[41–43] as follows: Cells are inoculated into 96-well microtiter plates in 100 ml. After cell inoculation, the microtiter plates are incubated at 37 °C, 5% CO2, 95% air, and 100% relative humidity for 24 h prior to addition of experimental compounds. After 24 h, two plates of each cell line are fixed in situ with TCA, to represent a measurement of the cell population for each cell line at the time of compound addition (Tz). Experimental compounds are solubilised in dimethyl sulfoxide at 400-fold the desired final maximum test concentration and stored frozen prior to use. At the time of compound addition, an aliquot of frozen concentrate is thawed and diluted to twice the desired final maximum test concentration with a complete medium containing […] gentamicin. Aliquots of […] of the compounds dilutions are added to the appropriate microtiter wells already containing 100 ml of medium, resulting in the required final compound concentration. Following compound addition, the plates are incubated for an additional 48 h at 37 °C, 5% CO2, 95% air, and 100% relative humidity. For adherent cells, the assay is terminated by the addition of cold trichloroacetic acid (TCA). Cells are fixed in situ by the gentle addition of 50 ml of cold 50% (w/v) TCA (final concentration, 10% TCA) and incubated for […] at 4 °C. The supernatant is discarded, and the plates are washed five times with tap water and air-dried. Sulforhodamine B (SRB) solution (100 ml) at 0.4% (w/v) in 1% acetic acid is added to each well, and plates are incubated for 10 min at room temperature. After staining, the unbound dye is removed by washing five times with 1% acetic acid and the plates are air-dried. The bound stain is subsequently solubilised with a 10 mM trizma base, and the absorbance is read on an automated plate reader at a wavelength of 515 nm. For suspension cells, the methodology is the same except that the assay is terminated by fixing settled cells at the bottom of the wells by gently adding 50 ml of 80% TCA (final concentration, 16% TCA). Using the absorbance measurements [time zero, (Tz), control growth, (C), and test growth in the presence of compound (Ti)], the percentage growth is calculated for each compound. The One-dose data are reported as a mean graph of the percent growth of treated cells. The reported number is growth relative to the no-compound control, and relative to the time zero number of cells. This allows the detection of both growth inhibition and lethality.
(§2) Fifteen newly synthesised compounds were tested for their in vitro antiproliferative activity by the National Cancer Institute (NCI), Maryland, USA[50], under the Developmental Therapeutic Program (DTP)[41]^,[43]^,[51]^,[52]. The tested compounds were evaluated at a concentration of 10 µM on a panel of 60 tumour cell lines representing leukaemia and non-small cell lung, colon, CNS, melanoma, ovarian, renal, prostate, and breast cancers. The antiproliferative activity was presented by the NCI as percent growth of the treated cells and is presented in Table 1 as growth inhibition percentage (GI%) achieved by the tested compounds.

SK-OV-3 = assay: as above; type: cell-based; conditions: Homo sapiens, read-out: growth inhibition % (GI%)
Experimental: as §1, §2

HOP-62 = assay: as above; type: cell-based; conditions: Homo sapiens, read-out: growth inhibition % (GI%)
Experimental: as §1, §2

NCI-H226 = assay: as above; type: cell-based; conditions: Homo sapiens, read-out: growth inhibition % (GI%)
Experimental: as §1, §2

ACHN = assay: as above; type: cell-based; conditions: Homo sapiens, read-out: growth inhibition % (GI%)
Experimental: as §1, §2

LOX IMVI = assay: as above; type: cell-based; conditions: Homo sapiens, read-out: growth inhibition % (GI%)
Experimental: as §1, §2

T-47D = assay: as above; type: cell-based; conditions: Homo sapiens, T47D, read-out: growth inhibition % (GI%)
Experimental: as §1, §2

A498 = assay: as above; type: cell-based; conditions: Homo sapiens, read-out: growth inhibition % (GI%)
Experimental: as §1, §2

U251 = assay: as above; type: cell-based; conditions: Homo sapiens, U-251, read-out: growth inhibition % (GI%)
Experimental: as §1, §2

EKVX = assay: as above; type: cell-based; conditions: Homo sapiens, read-out: growth inhibition % (GI%)
Experimental: as §1, §2

A549/ATCC = assay: as above; type: cell-based; conditions: Homo sapiens, read-out: growth inhibition % (GI%)
Experimental: as §1, §2

HCT-15 = assay: as above; type: cell-based; conditions: Homo sapiens, read-out: growth inhibition % (GI%)
Experimental: as §1, §2

MOLT-4 = assay: as above; type: cell-based; conditions: Homo sapiens, read-out: growth inhibition % (GI%)
Experimental: as §1, §2

SNB-19 = assay: as above; type: cell-based; conditions: Homo sapiens, read-out: growth inhibition % (GI%)
Experimental: as §1, §2

PC-3 = assay: as above; type: cell-based; conditions: Homo sapiens, read-out: growth inhibition % (GI%)
Experimental: as §1, §2

MCF7 = assay: as above; type: cell-based; conditions: Homo sapiens, read-out: growth inhibition % (GI%)
Experimental: as §1, §2

CAKI-1 = assay: as above; type: cell-based; conditions: Homo sapiens, read-out: growth inhibition % (GI%)
Experimental: as §1, §2

MDA-MB-231/ATCC = assay: as above; type: cell-based; conditions: Homo sapiens, read-out: growth inhibition % (GI%)
Experimental: as §1, §2

KM12 = assay: as above; type: cell-based; conditions: Homo sapiens, read-out: growth inhibition % (GI%)
Experimental: as §1, §2

OVCAR-8 = assay: as above; type: cell-based; conditions: Homo sapiens, read-out: growth inhibition % (GI%)
Experimental: as §1, §2

NCI-H322M = assay: as above; type: cell-based; conditions: Homo sapiens, read-out: growth inhibition % (GI%)
Experimental: as §1, §2

CCRF-CEM = assay: as above; type: cell-based; conditions: Homo sapiens, read-out: growth inhibition % (GI%)
Experimental: as §1, §2

SF-268 = assay: as above; type: cell-based; conditions: Homo sapiens, read-out: growth inhibition % (GI%)
Experimental: as §1, §2

NCI-H522 = assay: as above; type: cell-based; conditions: Homo sapiens, read-out: growth inhibition % (GI%)
Experimental: as §1, §2

UO-31 = assay: as above; type: cell-based; conditions: Homo sapiens, read-out: growth inhibition % (GI%)
Experimental: as §1, §2

SN 12 C = assay: as above; type: cell-based; conditions: Homo sapiens, SN12C, read-out: growth inhibition % (GI%)
Experimental: as §1, §2

NCI/ADR-RES = assay: as above; type: cell-based; conditions: Homo sapiens, read-out: growth inhibition % (GI%)
Experimental: as §1, §2

HS 578 T = assay: as above; type: cell-based; conditions: Homo sapiens, read-out: growth inhibition % (GI%)
Experimental: as §1, §2

IGROV1 = assay: as above; type: cell-based; conditions: Homo sapiens, IGROV-1, read-out: growth inhibition % (GI%)
Experimental: as §1, §2

SK-MEL-5 = assay: as above; type: cell-based; conditions: Homo sapiens, read-out: growth inhibition % (GI%)
Experimental: as §1, §2

M14 = assay: as above; type: cell-based; conditions: Homo sapiens, read-out: growth inhibition % (GI%)
Experimental: as §1, §2

SK-MEL-2 = assay: as above; type: cell-based; conditions: Homo sapiens, read-out: growth inhibition % (GI%)
Experimental: as §1, §2

NCI-H23 = assay: as above; type: cell-based; conditions: Homo sapiens, read-out: growth inhibition % (GI%)
Experimental: as §1, §2

K-562 = assay: as above; type: cell-based; conditions: Homo sapiens, K562, read-out: growth inhibition % (GI%)
Experimental: as §1, §2

BT-5 = assay: as above; type: cell-based; conditions: Homo sapiens, read-out: growth inhibition % (GI%)
Experimental: as §1, §2

SW-620 = assay: as above; type: cell-based; conditions: Homo sapiens, read-out: growth inhibition % (GI%)
Experimental: as §1, §2

MDA-MB-435 = assay: as above; type: cell-based; conditions: Homo sapiens, read-out: growth inhibition % (GI%)
Experimental: as §1, §2

HL-60 (TB) = assay: as above; type: cell-based; conditions: Homo sapiens, read-out: growth inhibition % (GI%)
Experimental: as §1, §2

SNB-75 = assay: as above; type: cell-based; conditions: Homo sapiens, read-out: growth inhibition % (GI%)
Experimental: as §1, §2

SK-MEL-28 = assay: as above; type: cell-based; conditions: Homo sapiens, read-out: growth inhibition % (GI%)
Experimental: as §1, §2

Cc1ccc(C(=O)c2ccc(CC(=O)NN3C(=O)c4ccccc4C3=O)n2C)cc1 [Compound 7c, N-(1,3-Dioxoisoindolin-2-yl)-2–(1-methyl-5–(4-methylbenzoyl)-1H-pyrrol-2-yl) acetamide]
24.5%: inhibition at 10 µM (EKVX)
> 300 °C: melting point
14%: inhibition at 10 µM (A549/ATCC)
10.2%: inhibition at 10 µM (LOX IMVI)
17.9%: inhibition at 10 µM (SNB-75)
< 10%: inhibition at 10 µM (HCT-116) | inhibition at 10 µM (SK-OV-3) | inhibition at 10 µM (HOP-62) | inhibition at 10 µM (NCI-H226) | inhibition at 10 µM (ACHN) | inhibition at 10 µM (U251) | inhibition at 10 µM (HCT-15) | inhibition at 10 µM (SNB-19) | inhibition at 10 µM (PC-3) | inhibition at 10 µM (MCF7) | inhibition at 10 µM (CAKI-1) | inhibition at 10 µM (MDA-MB-231/ATCC) | inhibition at 10 µM (KM12) | inhibition at 10 µM (OVCAR-8) | inhibition at 10 µM (NCI-H322M) | inhibition at 10 µM (CCRF-CEM) | inhibition at 10 µM (SF-268) | inhibition at 10 µM (SN 12 C) | inhibition at 10 µM (NCI/ADR-RES) | inhibition at 10 µM (HS 578 T) | inhibition at 10 µM (SK-MEL-5) | inhibition at 10 µM (M14) | inhibition at 10 µM (SK-MEL-2) | inhibition at 10 µM (NCI-H23) | inhibition at 10 µM (K-562) | inhibition at 10 µM (BT-5) | inhibition at 10 µM (SW-620) | inhibition at 10 µM (MDA-MB-435) | inhibition at 10 µM (HL-60 (TB)) | inhibition at 10 µM (SK-MEL-28)
14.8%: inhibition at 10 µM (IGROV1)
27.3%: inhibition at 10 µM (UO-31)
13.3%: inhibition at 10 µM (A498)
14.4%: inhibition at 10 µM (NCI-H522)
25.5%: inhibition at 10 µM (T-47D)
10.6%: inhibition at 10 µM (MOLT-4)
